Results as given in patent US9676788B2, “Aza-epoxy-guaiane derivatives and treatment of cancer” (The United States of America, as represented by the …, priority 2014, dated 2017).
“And” between values parts separate entries of the source, which are not always exact repeats. Identical values can stand only once. Like-named read-outs stand apart in the source and are kept apart here.

Legend:
[1] = tested on: A498 (renal cancer); assay: NCI 60-cell line protocol, Renal Cancer A498; assay type: cell-based, human; conditions: SRB endpoint; for GI50: Homo sapiens, A498, 48 h, five 10-fold dilutions, two days exposure; for A498 one dose (%): one-dose protocol, single final concentration of 10 micromolar, two days
[2] = tested on: ACHN (renal cancer); assay: NCI 60-cell line protocol, Renal Cancer ACHN; assay type: cell-based, human; conditions: SRB endpoint; for GI50: Homo sapiens, ACHN, 48 h, five 10-fold dilutions, two days exposure; for ACHN one dose (%): one-dose protocol, single final concentration of 10 micromolar, two days
[3] = tested on: HS 578T (breast cancer); assay: NCI 60-cell line protocol, Breast Cancer HS 578T; assay type: cell-based, human; conditions: SRB endpoint; for GI50: Homo sapiens, Hs-578T, 48 h, five 10-fold dilutions, two days exposure; for HS 578T one dose (%): one-dose protocol, single final concentration of 10 micromolar, two days
[4] = Plasma concentration in mice 30 minutes after oral gavage, by dose (LC-MS); assay type: in vivo
Experimental: Mice were dosed at 5 mg/kg, 10 mg/kg, 50 mg/kg, and 100 mg/kg compound 9 in Labrasol vehicle via oral gavage. 30 minutes after dosing, plasma was assayed for the concentration of compound 9 using LC-MS. The results are depicted graphically in FIG. 5.

[5] = Plasma concentration in mice over time after oral gavage (LC-MS/MS); assay type: in vivo
Experimental: Ten mice were administered 50 mg/kg of compound 9 in Labrasol vehicle via oral gavage. Two mice at a time were sacrificed at the following time points: 5 min, 15 min, 1 h, 4 h, and 8 h. Plasma concentrations of compound 9 were measured by LC-MS/MS, and the results set forth in Table 4 and depicted graphically in FIG. 7.
It was subsequently discovered that an error was made in weighing out compound 9 for formulation of a 5 mg/mL solution in Labrasol. The underweight formulation was confirmed to be about 40% of the expected concentration.

[6] = tested on: SA; assay: NCI 60-cell line protocol, Leukemia SA; assay type: cell-based, human; conditions: single dose 10 μM, two days exposure, SRB endpoint
[7] = tested on: M14; assay: NCI 60-cell line protocol, Melanoma M14; conditions: single dose 10 μM, two days exposure, SRB endpoint
Experimental: (§1) Samples were tested in the standard National Cancer Institute 60-cell line protocol. First, they were tested against all 60 cell lines in a single final concentration of 10 micromolar. Then, they were separately tested in five 10-fold dilutions. The drug exposure was for two days, with an SRB endpoint.
(§2) Samples were tested in the standard National Cancer Institute 60-cell line protocol. The dosing protocol was a single dose of the compound at 10 μM concentration.

[8] = tested on: K-562; assay: NCI 60-cell line protocol, Leukemia K-562; conditions: K-562 (Leukemia); single dose 10 μM; two days exposure; SRB endpoint
Experimental: as §1, §2

[9] = tested on: CCRF-CEM; assay: NCI 60-cell line protocol, Leukemia CCRF-CEM; conditions: single dose 10 μM, two days exposure, SRB endpoint
Experimental: as §1, §2

[10] = tested on: UACC-62; assay: NCI 60-cell line protocol, Melanoma UACC-62; conditions: UACC-62 (Melanoma); single dose 10 μM; two days exposure; SRB endpoint
Experimental: as §1, §2

[11] = tested on: LOX IMVI; assay: NCI 60-cell line protocol, Melanoma LOX IMVI; conditions: single dose 10 μM, two days exposure, SRB endpoint
Experimental: as §1, §2

[12] = tested on: MALME-3M; assay: NCI 60-cell line protocol, Melanoma MALME-3M; conditions: MALME-3M (Melanoma); single dose 10 μM; two days exposure; SRB endpoint
Experimental: as §1, §2

[13] = tested on: SK-MEL-2; assay: NCI 60-cell line protocol, Melanoma SK-MEL-2; conditions: SK-MEL-2 (Melanoma); single dose 10 μM; two days exposure; SRB endpoint
Experimental: as §1, §2

[14] = tested on: SK-MEL-5; assay: NCI 60-cell line protocol, Melanoma SK-MEL-5; conditions: SK-MEL-5 (Melanoma); single dose 10 μM; two days exposure; SRB endpoint
Experimental: as §1, §2

[15] = tested on: UACC-257; assay: NCI 60-cell line protocol, Melanoma UACC-257; conditions: UACC-257 (Melanoma); single dose 10 μM; two days exposure; SRB endpoint
Experimental: as §1, §2

[16] = tested on: RPMI-8226; assay: NCI 60-cell line protocol, Leukemia RPMI-8226; conditions: RPMI-8226 (Leukemia); single dose 10 μM; two days exposure; SRB endpoint
Experimental: as §1, §2

[17] = tested on: SK-MEL-28; assay: NCI 60-cell line protocol, Melanoma SK-MEL-28; conditions: SK-MEL-28 (Melanoma); single dose 10 μM; two days exposure; SRB endpoint
Experimental: as §1, §2

[18] = tested on: MDA-MB-435; assay: NCI 60-cell line protocol, Melanoma MDA-MB-435; conditions: MDA-MB-435 (Melanoma); single dose 10 μM; two days exposure; SRB endpoint
Experimental: as §1, §2

[19] = tested on: HL-60(fB); assay: NCI 60-cell line protocol, Leukemia HL-60(fB); assay type: cell-based, human; conditions: HL-60(fB) (Leukemia); single dose 10 μM; two days exposure; SRB endpoint
[20] = tested on: MOLT-4; assay: NCI 60-cell line protocol, Leukemia MOLT-4; assay type: cell-based, human; conditions: MOLT-4 (Leukemia); single dose 10 μM; two days exposure; SRB endpoint

SMILES | GI50 [1] [nM] | A498 one dose (%) [1] [%] | GI50 [2] [nM] | ACHN one dose (%) [2] [%] | GI50 [3] [nM] | HS 578T one dose (%) [3] [%] | Growth Percent [6] [%] | Growth Percent [7] [%] | Growth Percent [8] [%] | Growth Percent [9] [%] | Growth Percent [10] [%] | Growth Percent [11] [%] | Growth Percent [12] [%] | Growth Percent [13] [%] | Growth Percent [14] [%] | Growth Percent [15] [%] | Growth Percent [16] [%] | Growth Percent [17] [%] | Growth Percent [18] [%] | other results
CC1CCC2C1C(OC(=O)/C=C/c1ccccc1)C1(C(C)C)CC(NC(=O)CO)C2(C)O1 (centres unmarked) [Compound 9] | 160 | −15.20 | 4000 | 8.01 | 830 | 9.45 | – | – | – | – | – | – | – | – | – | – | – | – | – | concentration at 30 min ([4]; mouse, plasma, 100 mg/kg oral gavage in Labrasol, 30 minutes after dosing): ~700 ng/mL; oral bioavailability ([4]; oral gavage 5-100 mg/kg in Labrasol): orally bioavailable; [Aza-Englerin] (ng/mL), single animal ([5]; mice plasma, 50 mg/kg oral gavage in Labrasol, time 0.0833 hr, 50 mg/kg): 13.20 ng/mL; [Aza-Englerin] (ng/mL), single animal ([5]; mice plasma, 50 mg/kg oral gavage in Labrasol, time 0.2500 hr, 50 mg/kg): 22.76 ng/mL and 58.70 ng/mL; [Aza-Englerin] (ng/mL), single animal ([5]; mice plasma, 50 mg/kg oral gavage in Labrasol, time 1.0000 hr, 50 mg/kg): 59.24 ng/mL; [Aza-Englerin] (ng/mL), single animal ([5]; mice plasma, 50 mg/kg oral gavage in Labrasol, time 4.0000 hr, 50 mg/kg): 31.12 ng/mL and 86.81 ng/mL; [Aza-Englerin] (ng/mL), single animal ([5]; mice plasma, 50 mg/kg oral gavage in Labrasol, time 8.0000 hr, 50 mg/kg): 48.21 ng/mL; oral bioavailability ([5]; mice, oral gavage 50 mg/kg in Labrasol): orally bioavailable; absorption ([5]; mice, oral gavage in Labrasol): rapidly absorbed; time for which plasma concentrations are sustained ([5]; mice, oral gavage in Labrasol): greater than 8 h; concentration at 5 min ([5]; mouse, plasma, po, 50 mg/kg, mice plasma, 50 mg/kg oral gavage in Labrasol, time 0.0833 hr, mean of two mice, read-out: [Aza-Englerin] Mean): 10 ng/mL; concentration at 5 min ([5]; mouse, plasma, po, 50 mg/kg, mice plasma, 50 mg/kg oral gavage in Labrasol, time 0.0833 hr, read-out: [Aza-Englerin] (ng/mL), single animal): 6.87 ng/mL; concentration at 0.25 h ([5]; mouse, plasma, po, 50 mg/kg, mice plasma, 50 mg/kg oral gavage in Labrasol, time 0.2500 hr, mean of two mice, read-out: [Aza-Englerin] Mean): 40.7 ng/mL; concentration at 1 h ([5]; mouse, plasma, po, 50 mg/kg, mice plasma, 50 mg/kg oral gavage in Labrasol, time 1.0000 hr, mean of two mice, read-out: [Aza-Englerin] Mean): 73.2 ng/mL; concentration at 1 h ([5]; mouse, plasma, po, 50 mg/kg, mice plasma, 50 mg/kg oral gavage in Labrasol, time 1.0000 hr, read-out: [Aza-Englerin] (ng/mL), single animal): 87.2 ng/mL; concentration at 4 h ([5]; mouse, plasma, po, 50 mg/kg, mice plasma, 50 mg/kg oral gavage in Labrasol, time 4.0000 hr, mean of two mice, read-out: [Aza-Englerin] Mean): 59 ng/mL; concentration at 8 h ([5]; mouse, plasma, po, 50 mg/kg, mice plasma, 50 mg/kg oral gavage in Labrasol, time 8.0000 hr, mean of two mice, read-out: [Aza-Englerin] Mean): 67.8 ng/mL; concentration at 8 h ([5]; mouse, plasma, po, 50 mg/kg, mice plasma, 50 mg/kg oral gavage in Labrasol, time 8.0000 hr, read-out: [Aza-Englerin] (ng/mL), single animal): 87.3 ng/mL; AUC(0-t) ([5]; mouse, mice plasma, 50 mg/kg oral gavage in Labrasol, SE=97.3 hr*ng/mL): 524 ng·h/mL
C/C(=C\C(=O)OC1C2C(C)CCC2C2(C)OC1(C(C)C)CC2NC(=O)CO)c1ccccc1 (centres unmarked) [Compound 10] | 1100 | −24.59 | 3300 | 27.88 | 2200 | −8.92 | 117.13 | 100.16 | 92.32 | 94.07 | 101.83 | 100.2 | 95.9 | 104.13 | 101.11 | 92.39 | 125.43 | 117.95 | 105.86 | –
CC(C)[C@@]12C[C@@H](NC(=O)CO)[C@@](C)(O1)[C@@H]1CC[C@@H](C)[C@H]1[C@@H]2OC(=O)c1ccc2ccccc2c1 [Compound 12] | 1600 | −15.23 | 5400 | 8.40 | 2200 | −18.26 | – | – | – | – | – | – | – | – | – | – | – | – | – | –
CC1CCC2C1C(OC(=O)/C=C/c1ccccc1)C1(C(C)C)CC(NC(=O)CF)C2(C)O1 (centres unmarked) [Compound 31] | – | 83.31 | – | 104.52 | – | 92.63 | 85.46 | 96.67 | 106.42 | 88.63 | 99.56 | 102.48 | 106.46 | 116.95 | 110.24 | 104.8 | 94.34 | 109.79 | 106.48 | Growth Percent [19]: 104.52%; Growth Percent [20]: 96.46%
CC(C)[C@@]12C[C@@H](NC(=O)CO)[C@@](C)(O1)[C@@H]1CC[C@@H](C)[C@H]1[C@@H]2OC(=O)/C=C/C1CCCCC1 [Compound 11] | 5600 | 41.34 | 17000 | 99.90 | 6200 | 73.09 | – | – | – | – | – | – | – | – | – | – | – | – | – | –
